Results on four molecules are retold here after patent publication US12391698B2, “Substituted piperidines and piperazines and methods for the treatment of CNS disorders” (SUVEN LIFE SCIENCES LIMITED, priority 2022, dated 2025).

As a reminder, the Ki is the equilibrium dissociation constant of an inhibitor or competing ligand from its target. Broadly, the AUC(0-t) is the area under the concentration-time curve up to a stated or last time point. The term clearance denotes a measure of how efficiently the substance is removed, as volume per time. Read a high clearance as efficient removal. A word on the half-life: it is the time needed for the level to fall by half in the phase considered. A lower half-life goes with fast loss. The bioavailability is the share of a dose that reaches the circulation, judged against a reference dose that is usually intravenous. The term Cmax denotes the maximum level reached in the sampled fluid or tissue.

Structures can show the parent of a compound that is named as a salt. Where two headings read alike, the source gives them in different places.

Data set [1] addresses T1, cloned human 5-HT2A receptor (Homo sapiens, UniProt P28223).
T1 construct: expressed in transfected cells; host or cells: CHO-K1
Nature of the data set: Determination of Ki at 5-HT2A receptor (radioligand binding, [3H]-Ketanserine). To be noted: CHO-K1 recombinant cells, [3H]-Ketanserine 1.25 nM. The procedure, abridged:
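Membranes from CHO-K1 cells expressing the receptor, incubated 1 h at r.t. with 1.25 nM [3H]-ketanserin in pH 7.4 Tris-HCl 50 mM, 4 mM CaCl2, 0.1% ascorbic acid. Nonspecific binding defined with 0.1 mM 1-naphthylpiperazine; bound label measured after filtration.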

Data set [2] concerns the target T2, cloned human 5-HT1A receptor (Homo sapiens, UniProt P08908).
T2 construct: expressed in transfected cells; host or cells: HEK293-EBNA
T2 sequence (P08908 1-422): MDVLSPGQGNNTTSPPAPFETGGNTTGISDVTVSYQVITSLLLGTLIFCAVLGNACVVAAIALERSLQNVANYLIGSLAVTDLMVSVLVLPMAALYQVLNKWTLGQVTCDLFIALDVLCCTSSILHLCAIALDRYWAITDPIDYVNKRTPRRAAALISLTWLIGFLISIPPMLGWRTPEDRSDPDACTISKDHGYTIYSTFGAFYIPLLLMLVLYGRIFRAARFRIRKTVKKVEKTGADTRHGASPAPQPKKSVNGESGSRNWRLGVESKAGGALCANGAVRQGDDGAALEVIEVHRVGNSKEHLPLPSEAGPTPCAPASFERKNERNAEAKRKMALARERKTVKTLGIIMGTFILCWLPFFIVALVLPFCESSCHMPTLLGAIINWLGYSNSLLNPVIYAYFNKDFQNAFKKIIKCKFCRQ
The data set can be described thus: Determination of Ki at 5-HT1A receptor (radioligand binding, [3H]-8-Hydroxy DPAT). To be noted: HEK293-EBNA recombinant cells, [3H]-8-Hydroxy DPAT 0.8 nM. The procedure, abridged:
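Membranes from HEK293-EBNA cells expressing recombinant human 5-HT1A were incubated with 0.8 nM [3H]-8-hydroxy-DPAT for 2 h at r.t. in pH 7.4 Tris-HCl buffer with EDTA, MgSO4 and ascorbic acid. Non-specific binding was defined with 0.1 mM U92016A; bound radioactivity after filtration was compared with controls.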

Data set [3] addresses T3, recombinant rat 5-HT7 receptor (Rattus norvegicus, UniProt P32305).
T3 construct: expressed in transfected cells
Nature of the data set: Determination of Kb at 5-HT7 receptor, pCRE-Luc reporter gene assay in CHO cells. The data set is classed as cell-based. On the technique in general: Reporter assays use an easily measured gene product as a stand-in for the process of interest.

Data set [4] can be described thus: Rodent brain penetration study. To be noted: rat, po, fed male Wistar rats, 3 mg/kg p.o., mean ± S.D, n = 3, read-out: Rat Brain Penetration (Cbrain/Cplasma) at 3 mg/kg, p.o. @ 1 h. The data set is classed as in vivo. The protocol:
Male Wistar rats (260±40 g) were used as experimental animals. Three animals were housed in each cage. Animals were given water and food ad libitum throughout the experiment and maintained on a 12 h light/dark cycle.
Brain penetration was determined in discrete manner in rats. One day prior to dosing, male Wistar rats were acclimatized and randomly grouped according to their body weight. At each time point (0.50, 1 and 2 h), n=3 animals were used.
The test compounds were suitably preformulated and administered orally at (free base equivalent) 3 mg/kg. Blood samples were removed via cardiac puncture under isoflurane anesthesia. The animals were sacrificed to collect brain tissue. Plasma was separated and brain samples were homogenized. Plasma and brain homogenates were stored frozen at −20° C. until analysis. The concentrations of the test compounds in plasma and brain were determined using LC-MS/MS method.
The test compounds were quantified in plasma and brain homogenate by qualified LC-MS/MS method using suitable extraction technique in the calibration range of 1-500 ng/mL. Study samples were analyzed using calibration samples in the batch and quality control samples spread across the batch. Extent of brain-plasma ratio (Cbrain/Cplasma) was calculated.

Data set [5] deals with T4, hD2S (cloned human dopamine D2S receptor) (Homo sapiens, UniProt P14416).
T4 construct: expressed in transfected cells; host or cells: CHO-K1
The data set can be described thus: Determination of Ki at D2S receptor (radioligand binding, [3H]-Raclopride). To be noted: CHO-K1 recombinant cells, [3H]-Raclopride 4 nM. A digest of the protocol: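 Displacement of 4 nM [3H]-Raclopride from membranes of CHO-K1 cells expressing the receptor, 2 h at r.t. in 50 mM Tris-HCl pH 7.4 with 120 mM NaCl, 5 mM KCl, 5 mM MgCl2, 1 mM EDTA. Non-specific binding defined with 0.1 mM haloperidol; filter-bound radioactivity compared with control.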

Data set [6] in a line: Rodent pharmacokinetic study. The data set is classed as in vivo, Male Wistar rats. To be noted: rat, plasma, mean ± S.D, n = 3; for bioavailability: oral 3 mg/kg vs intravenous 1 mg/kg, read-out: F (Bioavailability). Here is the method:
Male Wistar rats (260±50 g) were used as experimental animals. Animals were housed individually in polypropylene cage. Two days prior to study, male Wistar rats were anesthetized with isoflurane for surgical placement of jugular vein catheter. Rats were randomly divided for oral (3 mg/kg) and intravenous (1 mg/kg) dosing (n=3/group) and fasted overnight before oral dosing (p.o.). However, food and water were provided ad libitum to the rats allocated for intravenous dosing.
At pre-determined time points, blood samples were collected through jugular vein and replenished with an equivalent volume of normal saline. Collected blood was transferred into a labeled eppendorf tube containing 10 μL of heparin as an anticoagulant. Typically blood samples were collected at 0.08, 0.25, 0.5, 1, 2, 4, 6, 8, and 24 h post dose. Blood samples were centrifuged at 4000 rpm for 10 min. Plasma was separated and stored frozen at −80° C. until analysis. The concentrations of the test compounds were quantified in plasma by qualified LC-MS/MS method using suitable extraction technique. The test compounds were quantified in the calibration range around 1-1000 ng/mL in plasma. Study samples were analyzed using calibration samples in the batch and quality control samples spread across the batch.
Pharmacokinetic parameters Cmax, AUCt, t1/2. Clearance and Bioavailability (F) were calculated using standard non-compartmental model by using Phoenix WinNonlin 6.0.4 version software package.

Where [7] appears, read: intravenous (bolus) 1 mg/kg, male Wistar rats.
[8] abbreviates: oral (gavage) 3 mg/kg, fasted male Wistar rats.

T4 sequence (P14416 1-414 isoform P14416-2): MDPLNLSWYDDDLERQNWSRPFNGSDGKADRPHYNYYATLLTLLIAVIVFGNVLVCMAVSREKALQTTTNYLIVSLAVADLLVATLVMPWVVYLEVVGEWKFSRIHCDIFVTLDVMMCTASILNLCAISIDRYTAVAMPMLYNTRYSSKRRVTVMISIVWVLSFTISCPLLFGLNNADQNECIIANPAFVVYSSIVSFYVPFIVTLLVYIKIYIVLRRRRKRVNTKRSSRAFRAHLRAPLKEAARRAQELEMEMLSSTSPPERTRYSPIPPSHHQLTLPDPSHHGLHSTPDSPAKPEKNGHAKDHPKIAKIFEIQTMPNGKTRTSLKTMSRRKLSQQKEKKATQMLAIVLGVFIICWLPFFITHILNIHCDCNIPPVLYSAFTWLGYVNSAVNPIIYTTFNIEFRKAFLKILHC
T3 sequence (P32305 whole entry): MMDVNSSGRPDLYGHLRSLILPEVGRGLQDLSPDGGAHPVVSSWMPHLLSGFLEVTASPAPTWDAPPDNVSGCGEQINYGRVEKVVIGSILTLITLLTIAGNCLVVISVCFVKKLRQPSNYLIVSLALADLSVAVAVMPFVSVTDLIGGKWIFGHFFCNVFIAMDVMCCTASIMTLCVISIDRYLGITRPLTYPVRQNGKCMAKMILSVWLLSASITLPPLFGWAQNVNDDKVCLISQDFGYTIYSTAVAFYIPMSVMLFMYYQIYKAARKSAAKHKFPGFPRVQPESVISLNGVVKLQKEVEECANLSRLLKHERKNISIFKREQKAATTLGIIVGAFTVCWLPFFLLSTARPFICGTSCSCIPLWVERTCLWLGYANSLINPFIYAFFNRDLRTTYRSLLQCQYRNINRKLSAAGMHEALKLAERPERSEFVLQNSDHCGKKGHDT
T1 sequence (P28223 whole entry): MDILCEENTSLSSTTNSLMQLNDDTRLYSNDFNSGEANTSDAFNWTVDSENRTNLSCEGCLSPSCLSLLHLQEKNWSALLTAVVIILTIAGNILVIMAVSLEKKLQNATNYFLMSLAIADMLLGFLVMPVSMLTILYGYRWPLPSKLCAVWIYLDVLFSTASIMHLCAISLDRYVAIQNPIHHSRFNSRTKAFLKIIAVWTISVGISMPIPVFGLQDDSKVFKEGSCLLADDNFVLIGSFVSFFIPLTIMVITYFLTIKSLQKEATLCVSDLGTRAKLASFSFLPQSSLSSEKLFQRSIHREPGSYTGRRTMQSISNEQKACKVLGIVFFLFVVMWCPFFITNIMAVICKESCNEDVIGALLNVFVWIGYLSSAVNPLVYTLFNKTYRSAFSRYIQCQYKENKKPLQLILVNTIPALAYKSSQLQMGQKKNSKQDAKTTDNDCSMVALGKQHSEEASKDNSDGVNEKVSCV

As to `O=C1C[C@@H]2CCCN2C(=O)N1CCCCN1CCN(c2nsc3ccccc23)CC1` [Example 2, 2-[4-(4-Benzo[d]isothiazol-3-yl-piperazin-1-yl)-butyl]-tetrahydro-pyrrolo[1,2-c]pyrimidine-1,3-dione oxalate], in data set [1] (read-out: Ki h5-HT2A), the inhibition constant Ki stood at 0.6 nM. Further, the Ki in data set [2] (read-out: Ki h5-HT1A) worked out at 0.06 nM. In data set [3], the “agonist activity at rat recombinant 5-HT7 receptor” value (shortened to “agonist activity”) is given as “no detectable agonist activity”. In data set [4] (brain/plasma), the Kp at 1 h was 0.49 ± 0.08. For the same molecule, in data set [5] (read-out: Ki hD2S), the Ki turned out to be 5.4 nM. In data set [6] (setting [7]), the AUC(0-t) was determined as 544 ± 19 ng·h/mL, the clearance was 30 ± 1 mL/min/kg and the half-life is 2 ± 0.7 h. The bioavailability in data set [6] (male Wistar rats) is 15 ± 3%. In data set [6] (setting [8]), this molecule showed an AUC(0-t) of 244 ± 53 ng·h/mL, a Cmax of 253 ± 59 ng/mL and a half-life of 1.3 ± 0.1 h.
Regarding `O=C1C[C@@H]2CCCN2C(=O)N1CCCCN1CCN(c2cccc3sccc23)CC1` [Example 4, 2-[4-(4-Benzo[b]thiophen-4-yl-piperazin-1-yl)-butyl]-tetrahydro-pyrrolo[1,2-c]pyrimidine-1,3-dione oxalate], in data set [1] (read-out: Ki h5-HT2A), the Ki came to 4.24 nM. Further, the inhibitory constant (Ki) in data set [2] (read-out: Ki h5-HT1A) turned out to be 0.195 nM. In data set [4] (brain/plasma), the Kp at 1 h was determined as 2.14 ± 0.88. In data set [5] (read-out: Ki hD2S), the Ki was determined as 1.83 nM. For the same molecule, in data set [6] (setting [7]), the AUC(0-t) came out at 350 ± 40 ng·h/mL, the clearance stood at 48 ± 5 mL/min/kg and the half-life is 0.8 ± 0.2 h. Further, the bioavailability in data set [6] (male Wistar rats) turned out to be 16 ± 1%. Besides, in data set [6] (setting [8]), the AUC(0-t) is 169 ± 14 ng·h/mL, the peak concentration (Cmax) was 77 ± 2 ng/mL and the half-life was 1.1 ± 0.3 h.
On to `O=C1C[C@@H]2C[C@H](F)CN2C(=O)N1CCCCN1CCN(c2nsc3ccccc23)CC1` [Example 9, 2-[4-(4-Benzo[d]isothiazol-3-yl-piperazin-1-yl)-butyl]-6-fluoro-tetrahydro-pyrrolo[1,2-c]pyrimidine-1,3-dione oxalate], for which the Ki in data set [1] (read-out: Ki h5-HT2A) worked out at 2.49 nM. Also, the Ki in data set [2] (read-out: Ki h5-HT1A) worked out at 0.89 nM. Moreover, in data set [3], the “agonist activity” value is “no detectable agonist activity”. In data set [4] (brain/plasma), the Kp at 1 h was 0.4 ± 0.13. Also, the Ki in data set [5] (read-out: Ki hD2S) turned out to be 2.78 nM. In data set [6] (setting [7]), this molecule had an AUC(0-t) of 415 ± 69 ng·h/mL, a clearance of 40 ± 6 mL/min/kg and a half-life of 1.8 ± 0.1 h. In addition, in data set [6] (male Wistar rats), the bioavailability is 14 ± 2%. Besides, in data set [6] (setting [8]), the AUC(0-t) is 178 ± 23 ng·h/mL, the Cmax came out at 164 ± 43 ng/mL and the half-life is 1.4 ± 0.3 h.
Take `O=C1C[C@@H]2C[C@H]3C[C@H]3N2C(=O)N1CCCCN1CCN(c2nsc3ccccc23)CC1` [Example 11, 3-[4-(4-Benzo[d]isothiazol-3-yl-piperazin-1-yl)-butyl]-hexahydro-1b,3-diaza-cyclopropa[a]indene-2,4-dione oxalate]: the Ki in data set [1] (Ki h5-HT2A) amounted to 1.02 nM. The Ki in data set [2] (Ki h5-HT1A) is 0.29 nM. The “agonist activity” value in data set [3] is “no detectable agonist activity”. The Kp at 1 h in data set [4] (in vivo) amounted to 0.09 ± 0.16. The inhibition constant Ki in data set [5] (Ki hD2S) turned out to be 0.62 nM. In data set [6] (setting [7]), this molecule gave an AUC(0-t) of 412 ± 44 ng·h/mL, a clearance of 41 ± 5 mL/min/kg and a half-life of 1.3 ± 0.1 h. Further, in data set [6] (male Wistar rats), the bioavailability turned out to be 8 ± 5%. In data set [6] (setting [8]), this molecule showed an AUC(0-t) of 98 ± 63 ng·h/mL, a Cmax of 94 ± 52 ng/mL and a half-life of 2 ± 0.2 h.
